Earlier results in patent publication US20160107977A1, “METHODS OF SYNTHESIS OF INGENOL AND INTERMEDIATES THEREOF” (LEO LABORATORIES LIMITED, priority 2013, published 2016).

Key:
Epstein-Barr virus = settings: lymphoblastoid cells; Keller et al. 1982
[1] = test system: breast cancer cell line MDA-MB-231; settings: p53-mediated pathway, Vigone et al. 2005
[2] = test system: breast cancer cell line T47D; settings: p53-mediated pathway, Vigone et al. 2005

| SMILES | Epstein-Barr virus induction (Epstein-Barr virus) | antitumour activity [1] | antitumour activity [2] |
| --- | --- | --- | --- |
| CCCCCCCCCCCCCCCC(=O)O[C@H]1C(C)=C[C@]23C(=O)[C@@H](C=C(CO)[C@@H](O)[C@]12O)[C@H]1[C@@H](C[C@H]3C)C1(C)C | most potent Epstein-Barr virus inducer |  |  |
| CC1=CC23C(=O)C(C=C(COC(=O)c4ccccc4)C(O)C2(O)C1O)C1C(CC3C)C1(C)C (stereo not drawn) [ingenol-20-benzoate] |  | antitumour activity characterized by inhibition of cell growth and apoptotic cell death | antitumour activity characterized by inhibition of cell growth and apoptotic cell death |
